Where two headings read alike, the source gives them in different places.

One data set addresses 3CLpro (Severe acute respiratory syndrome coronavirus 2, UniProt P0DTD1). Briefly: SARS-CoV-2 3CLpro protease assay (duplex, SAMDI-MS). As to conditions: 3CLpro, 30 mins preincubation, class symbols; read-out: SARS-Cov-2 IC50. It is filed as biochemical. Set-up: For the duplex assay, 3CLpro and HRV3C was added.
A short description of the next data set: in vitro. As to conditions: African green monkey, VeroE6 + CP (CC50), Vero E6-eGFP cells with CP-100356, absence of virus, MTS.
Data set [1] is described as follows: Cytotoxicity plates without OC43 virus (cell-titer-glo). Type of data set: cell-based, human. As to conditions: human; HeLa cells without OC43 virus, class symbols. The method, then: The human beta-coronavirus OC43 was purchased from ATCC (Manassas, VA) and propagated using HCT-8 human colorectal epithelial cells (ATCC). HeLa human cervical epithelial cells (ATCC) were used as susceptible host cell lines and were cultured using EMEM media, supplemented with 10% fetal bovine serum (FBS), 1% (v/v) penicillin/streptomycin (P/S), 1% (v/v) HEPES and 1% (v/v) Cellgro Glutagro™ supplement (all Corning, Manassas, VA) at 37° C. For the OC43 antiviral assay, 1.5×10^4 HeLa cells per well were plated in 100 μL complete media in white 96-well plates with clear bottoms at 37° C. for up to 24 h to facilitate attachment and allow cells to recover from seeding stresses. Next day, the cell culture medium was removed. Serially diluted compounds in 100 μL assay media (EMEM, 2% FBS, 1% P/S, 1% Cellgro Glutagro™ supplement, 1% HEPES) were added to the cells and incubated for 4H at 37° C. in a humidified 5% CO2 incubator. 100 μL of OC43 virus stock was diluted to a concentration known to produce optimal cytopathic effect, inducing 80-90% reduction in cell viability. 96-well plates were incubated for 6 (HeLa) days at 33° C.; each plate contains uninfected control wells as well as virus-infected wells that were not treated with compound. Cytotoxicity plates without the addition of OC43 virus were carried out in parallel. At the end of the incubation period, 100 μL cell culture supernatant was replaced with 100 μL cell-titer-glo reagent (Promega, Madison, WI) and incubated for at least 10 min at rt prior to measuring luminescence. Luminescence was measured on a Perkin Elmer (Waltham, MA) Envision plate reader. Antiviral % inhibition was calculated as follows: [(Compound treated cells infected sample)−(no compound infected control)]/[(Uninfected control)−(no compound infected control)]*100; Using GraphPad (San Diego, CA) prism software version 8.3.1, the antiviral dose-response plot was generated as a sigmoidal fit, log(inhibitor) vs response-variable slope (four parameters) model and the EC50 was calculated which is the predicted compound concentration corresponding to a 50% inhibition of the viral cytopathic effect.

A further data set addresses T1, human cathepsin L (Homo sapiens, UniProt P07711).
T1 construct: purchased R&D Systems
Briefly: cathepsin L assay. Type of data set: biochemical. As to conditions: 10 pM human cathepsin L, Z-FR-AMC 2 μM, class symbols. As for the experimental part: For the cathepsin L assay, 10 pM of human cathepsin L (R&D Systems; Minneapolis, MN) was preincubated for 30 mins with test compounds. Reactions were initiated by the addition of a peptide substrate Z-FR-AMC (final concentration 2 μM, Anaspec; Fremont, CA). Fluorescence was measured at 2-minute intervals for 30 mins using a 355/460 excitation/emission filter module on an Envision plate reader (Perkin Elmer; Waltham, MA). The IC50 values were calculated for each assay by fitting the curves using a four-parameter equation in GraphPad Prism.

Data set [2] deals with SARS-CoV-2-GHB-03021/2020. The data set can be described thus: microbe, parasite or virus in culture. As to conditions: Severe acute respiratory syndrome coronavirus 2, Vero C1008, 96 h; read-out: VeroE6 + CP (EC50). It is filed as cell-based.
Data set [3] has as its system human beta-coronavirus OC43. The data set can be described thus: microbe, parasite or virus in culture. It is filed as cell-based. Conditions: Betacoronavirus 1, OC43, HeLa, 144 h, OC43 in HeLa cells, 6 days at 33° C., read-out: EC50.
In another data set the target is HRV3C (Human rhinovirus 14, UniProt P03303). Briefly: HRV3C protease assay (duplex, SAMDI-MS). It is filed as biochemical, HRV. Conditions: 30 mins preincubation. The method, then: Protease assays were performed in 384-well low volume polypropylene microtiter plates at ambient temperature. For the duplex assay, 3CLpro and HRV3C was added using a Multidrop Combi (Thermo Scientific; Waltham, MA) and preincubated for 30 mins with small molecules. The reactions were initiated by the addition of the two peptide substrates. The reactions were incubated for 30 mins and quenched by the addition of 0.5% formic acid (final) with subsequent neutralization using 1% sodium bicarbonate (final). Internal standard peptides were added in 20 mM Hepes pH 8.0 for quantitation of the protease products. For SAMDI-MS analysis, 2 μL of each reaction mixture was transferred using a 384-channel automated liquid handler to SAMDI biochip arrays functionalized with a neutravidin-presenting self-assembled monolayer. The SAMDI arrays were incubated for 1 h in a humidified chamber to allow the specific immobilization of the biotinylated peptide substrates, cleaved products and internal standards. The samples were purified by washing the SAMDI arrays with deionized ultrafiltered water and dried with compressed air. A matrix comprising alpha-cyano cinnamic acid in 80% acetonitrile:20% aqueous ammonium citrate was applied in an automated format by dispensing 50 nL to each spot in the array. SAMDI-MS was performed using reflector-positive mode on an AB Sciex TOF-TOF 5800 System (AB Sciex, Framingham, MA) with 400 shots/spot analyzed in a random raster sampling. For data analysis, area under the curves (peaks) (AUCs) for the product and internal standard were calculated using the TOF/TOF Series Explorer (AB Sciex), and the amount of product formed was calculated using the equation (AUC product/AUC internal standard). The amount of product generated was calculated using the ratio of product area under the curve (AUC) divided by the AUC of the internal standard. Negative controls were pre-quenched with 0.5% formic acid final. Assay robustness was determined by Z-Factor. The IC50s were determined by fitting the curves using a four-parameter equation in Graphpad Prism 8.

Setting [4] is: HRV3C, class symbols, read-out: HRV IC50.

With `O=C(NCc1ccccc1)C(=O)C(C[C@@H]1CCNC1=O)NC(=O)[C@@H]1CC2(CC2)CN1C(=O)c1cc2ccccc2[nH]1` (stereo partly shown) [Compound 9], the IC50 on 3CLpro was in the range of 0.02 to 0.2 µM; against human cathepsin L, 0.1 to 1 µM; on HRV3C (setting [4]), 2 to 20 µM. In addition, the CC50 in “in vitro” (numeric bounds) is over 100 µM. In addition, the CC50 at 6 days in data set [1] is over 10 µM. Besides, the EC50 in data set [2] lay in the range of 1 to 10 µM; in data set [3] (class symbols), 0.1 to 1 µM.

As to `COc1cccc2[nH]c(C(=O)N3Cc4ccccc4C[C@H]3C(=O)N[C@@H](C[C@@H]3CCNC3=O)C(=O)COCc3ccccc3)cc12` [Compound 99], the IC50 at 3CLpro is 2 to 20 µM; against human cathepsin L, at least 10 µM; at HRV3C (HRV3C, bound, read-out: HRV IC50), over 10 µM. Besides, the CC50 in “in vitro” (class symbols) was over 10 µM. This molecule also registered a CC50 at 6 days in data set [1] of over 10 µM. Further, the EC50 in data set [2] was 10 to 100 µM; in data set [3] (bound), over 10 µM.

Take `O=C(NCc1ccccc1)C(=O)C(C[C@@H]1CCNC1=O)NC(=O)[C@@H]1CCCCN1C(=O)c1cc2ccccc2[nH]1` (stereo partly drawn) [Compound 1, (2S)—N-(4-(benzylamino)-3,4-dioxo-1-((S)-2-oxopyrrolidin-3-yl)butan-2-yl)-1-(1H-indole-2-carbonyl)piperidine-2-carboxamide]: the IC50 at 3CLpro was in the range of 2 to 20 µM; against HRV3C (HRV IC50, HRV3C, class symbols), 20 to 100 µM. Besides, in “in vitro” (numeric bounds), the CC50 was over 100 µM. The half-maximal cytotoxic concentration (CC50) at 6 days in data set [1] was over 10 µM. The figures for the EC50 in data set [2] and in data set [3] (class symbols) were over 100 µM and 1 to 10 µM, respectively.

On to `COc1cccc2[nH]c(C(=O)N3C[C@@H]4CCC[C@@H]4[C@H]3C(=O)N[C@@H](C[C@@H]3CCNC3=O)C(=O)c3nc4ccccc4o3)cc12` [Compound 75, (1S,3aR,6aS)—N-[(2S)-1-(1,3-benzoxazol-2-yl)-1-oxo-3-[(3S)-2-oxopyrrolidin-3-yl]propan-2-yl]-2-(4-methoxy-1H-indole-2-carbonyl)-hexahydro-1H-cyclopenta[c]pyrrole-1-carboxamide], for which the IC50 is 0.02 to 0.2 µM at 3CLpro; at least 10 µM at human cathepsin L; over 10 µM at HRV3C (HRV IC50, HRV3C, bound). Moreover, the CC50 in “in vitro” (numeric bounds) was over 100 µM. Moreover, the CC50 at 6 days in data set [1] is over 10 µM. Moreover, the EC50 in data set [2] lay in the range of 1 to 10 µM; in data set [3] (class symbols), 0.1 to 1 µM.

Take `O=C[C@H](C[C@@H]1CCNC1=O)NC(=O)[C@@H]1[C@H]2CCC[C@H]2CN1C(=O)c1cc2ccccc2[nH]1` [Compound 13, (1S,3aR,6aS)-2-(1H-indole-2-carbonyl)-N-[(2S)-1-oxo-3-[(3S)-2-oxopyrrolidin-3-yl]propan-2-yl]-hexahydro-1H-cyclopenta[c]pyrrole-1-carboxamide]: the half-inhibitory concentration (IC50) at 3CLpro is under 0.02 µM; against human cathepsin L it was 1 to 10 µM; on HRV3C (setting [4]), 0.2 to 2 µM. In addition, the CC50 in the data set “in vitro” (numeric bounds) was over 100 µM. In data set [1], this molecule showed a half-maximal cytotoxic concentration (CC50) at 6 days of over 10 µM. Moreover, the half-maximal effective concentration (EC50) in data set [2] and in data set [3] (class symbols) was 1 to 10 µM in each case.

Consider `COc1cccc2[nH]c(C(=O)N3C[C@@H]4CCC[C@@H]4[C@H]3C(=O)N[C@H](C=O)C[C@@H]3CCNC3=O)cc12` [Compound 14A, (1S,3aR,6aS)-2-(4-methoxy-1H-indole-2-carbonyl)-N-[(2S)-1-oxo-3-[(3S)-2-oxopyrrolidin-3-yl]propan-2-yl]-hexahydro-1H-cyclopenta[c]pyrrole-1-carboxamide], for which the half-maximal inhibitory concentration (IC50) on 3CLpro was 0.02 to 0.2 µM; on human cathepsin L it was at least 10 µM; at HRV3C (setting [4]), 0.2 to 2 µM. Also, the CC50 in the data set “in vitro” (numeric bounds) is over 100 µM. Also, the CC50 at 6 days in data set [1] was over 10 µM. Also, the EC50 was 10 to 100 µM in data set [2] and 1 to 10 µM in data set [3] (class symbols).

Regarding `CO[C@@H]1C[C@@H](C(=O)NC(C[C@@H]2CCNC2=O)C(=O)C(=O)NCc2ccccc2)N(C(=O)c2cc3ccccc3[nH]2)C1` (stereo partly shown) [Compound 12], the IC50 was in the range of 2 to 20 µM on 3CLpro and 20 to 100 µM at HRV3C (HRV IC50, HRV3C, class symbols). The CC50 in the data set “in vitro” (numeric bounds) was over 100 µM. Besides, in data set [1], the CC50 at 6 days is over 10 µM. In addition, the EC50 is over 100 µM in data set [2] and 10 to 100 µM in data set [3] (class symbols).

For the molecule `O=C(NCc1ccccc1)C(=O)C(C[C@@H]1CCNC1=O)NC(=O)[C@@H]1C[C@@H](OCc2ccccc2)CN1C(=O)c1cc2ccccc2[nH]1` (stereo partly shown) [Compound 6], the 50% inhibitory concentration (IC50) lay within 2 to 20 µM at 3CLpro and 0.2 to 2 µM against HRV3C (HRV IC50, HRV3C, class symbols). For the same molecule, the CC50 in “in vitro” (numeric bounds) is over 100 µM. Besides, in data set [1], the 50% cytotoxic concentration (CC50) at 6 days is over 10 µM. Moreover, the EC50 in data set [2] is over 100 µM; in data set [3] (class symbols) it was 1 to 10 µM.

On to `O=C(NCc1ccccc1)C(=O)C(C[C@@H]1CCNC1=O)NC(=O)[C@@H]1C[C@@H](Oc2ccccc2)CN1C(=O)c1cc2ccccc2[nH]1` (stereo partly shown) [Compound 5], for which the half-maximal inhibitory concentration (IC50) on 3CLpro was in the range of 20 to 100 µM; against HRV3C (HRV IC50, HRV3C, class symbols), 0.2 to 2 µM. Moreover, the cytotoxic concentration (CC50) in “in vitro” (numeric bounds) was over 100 µM. In data set [1], this molecule displayed a 50% cytotoxic concentration (CC50) at 6 days of over 10 µM. Further, the EC50 in data set [2] was in the range of 10 to 100 µM; in data set [3] (class symbols), 1 to 10 µM.

In the case of `CC(C)(C)O[C@@H]1C[C@@H](C(=O)NC(C[C@@H]2CCNC2=O)C(=O)C(=O)NCc2ccccc2)N(C(=O)c2cc3ccccc3[nH]2)C1` (stereo partly shown) [Compound 10], the 50% inhibitory concentration (IC50) at 3CLpro was in the range of 2 to 20 µM; against HRV3C (HRV IC50, HRV3C, class symbols), 0.2 to 2 µM. Further, the cytotoxic concentration (CC50) in the data set “in vitro” (numeric bounds) was over 100 µM. This molecule also had a CC50 at 6 days in data set [1] of over 10 µM. Further, the EC50 was over 100 µM in data set [2] and 1 to 10 µM in data set [3] (class symbols).

`C=CC[C@@H]1C[C@@H](C(=O)N[C@@H](C[C@@H]2CCNC2=O)C(=O)C(=O)NCc2ccccc2)N(C(=O)c2cc3ccccc3[nH]2)C1` [Compound 21]: the half-maximal inhibitory concentration (IC50) on 3CLpro fell in the range of 0.2 to 2 µM; against HRV3C (HRV IC50, HRV3C, class symbols), 2 to 20 µM. For the same molecule, in data set [1], the CC50 at 6 days was over 10 µM. Also, the concentration for a half-maximal effect (EC50) in data set [2] fell in the range of 10 to 100 µM; in data set [3] (class symbols) it was 0.1 to 1 µM.

For orientation: IC50 means the concentration that inhibits the measured activity by half. The CC50 is the concentration giving 50% cytotoxicity. The EC50 is the concentration giving half of the maximal effect.

The record behind these values is patent US11952365B2, “Anti-viral compounds” (Aligos Therapeutics, Inc., priority 2020, dated 2024).
